Measurements from publication PMC12267471, “Discovery of natural scaffolds as HER2 inhibitors for breast cancer: virtual screening, molecular dynamics, and biological characterization with selectivity profiling” (Scientific Reports, 2025).

What was measured:
[1] = system: HER2 protein in SKBR3 cells; test: Western blot of p-HER2 and t-HER2, SKBR3; assay type: cell-based, human; conditions: SKBR3, 10 µM, 72 h
Experimental: (§1) SKBR3 and BT-474 were plated in RPMI-1640 media, washed, and incubated for 72 h. They were lysed in cold lysis buffer, frozen, collected, sonicated, and centrifuged for 10 min under cooling. The stacking and resolving solutions for polyacrylamide gels were prepared using various solutions, including 30% acrylamide, 0.5 M Tris, 10% SDS, 10% Ammonium persulfate, and 0.005 mL TEMED in 3.4 mL water and 3.3 mL water respectively. The ReadyPrepTM protein extraction kit was used to extract total protein from samples. Protein concentration was determined using the Bradford Protein Assay Kit. Samples were mixed with Laemmli sample buffer, pH adjusted and boiled for five minutes at 95 °C before loading onto SDS-polyacrylamide gels. Proteins in each sample were mixed, boiled, and loaded onto SDS-polyacrylamide gels. They were separated using the SDS-PAGE method, using the TGX Stain-Free™ FastCast™ Acrylamide Kit and a Cleaver electrophoresis unit. Proteins were transferred from gels to PVDF membranes using transfer sandwiches. Filter paper, membrane, gel, and filter paper were stacked in a sandwich. Gels were blotted onto PVDF membranes via electrophoresis using a Bio-Rad Semi-dry Electroblotter for 30 min. […] The intensity of each band was quantitated using ImageLab.

[2] = target: T1, HER2 kinase (Homo sapiens, UniProt P04626); test: Z'-LYTE Kinase Assay-Tyr6 Peptide biochemical HER2 kinase assay; conditions: cell-free Z'-LYTE, Tyr6 peptide substrate; read-out: IC50, inhibition of ATP-induced HER2 phosphorylation
T1 construct: HER2 purified kinase domain (amino acids 676–1255); purchased Thermo Fischer Scientific PV3590
Excerpt: The Z’-LYTE™ Kinase Assay-Tyr6 Peptide kit (Thermo Fischer Scientific™, Madison, WI, USA) was employed to evaluate the potential of selected natural products to suppress the catalytic activity of HER2 kinase. The assay adopts a Fluorescence Resonance Energy Transfer (FRET) based method in a cell-free coupled-enzyme format with no use of antibodies. The assay method mainly relies on the difference in sensitivity of phosphorylated and non-phosphorylated peptides to proteolytic cleavage. This method is a ratio metric method that calculates the Emission Ratio of donor emission divided by acceptor emission after excitation of the donor fluorophore at 400 nm. In this assay, 20 µL/well reactions containing kinase buffer, 200 µM ATP, 4µM Z’-LYTE Tyr6 Peptide substrate, 2500 ng/mL HER2 kinase, and drugs of interest functioning as inhibitors were set up in 96-well plates. Each well received 10 µL of site-specific protease development solution after one hour of room temperature incubation. The incubation continued for a full hour. Following process termination, the kinase inhibitory activity and/or peptide substrate cleavage status were assessed using a plate reader (BioTek FLx800™) to measure the ratio of fluorescence signal at 445 nm (coumarin)/520 nm (fluorescein).
The IC50 value for each natural product was computed using XLfit® 4.1 software (ID Business Solutions Inc. (IDBS), Emeryville CA), applying non-linear regression of log concentration against the percentage of HER2 inhibition.
Utilizing the Z’-LYTE™ Kinase Assay-Tyr6 Peptide kit as a cell-free system for evaluating the inhibitory activity of HER2, the five natural products were evaluated for their capacity to inhibit HER2 phosphorylation. Since its kinase catalysis is necessary for all HER2-mediated activities, we attempted at this initial stage to validate the HER2 inhibitory ability of the five in silico hits directly on the HER2 purified kinase domain (amino acids 676–1255), that was in vitro phosphorylated to attain the maximum level of intrinsic kinase activity. In this assay, the substrate was Z’-LYTE™ Tyr6 peptide; thus, the changes in its phosphorylation can directly correlate with the HER2 kinase activity. In the meantime, tyrphostin AG 1478 was used as a positive control to ensure the validity of the assay. Lapatinib (Tykerb®) was included as a second positive control to benchmark virtual hits’ performance against clinically approved standards.

[3] = target: RET (Homo sapiens, UniProt P07949); test: SelectScreen Z'-LYTE kinase profiling; assay type: biochemical
Experimental: (§2) Liquiritin was screened at 0.1 µM dose against a panel of 15 human kinases using SelectScreen® kinase profiling services offered by ThermoFisher Scientific™ (Madison, WI, USA). The percent inhibition of Liquiritin was assessed against each kinase in an automated high-throughput screening system using the time-resolved fluorescence resonance energy transfer Z´-LYTE™ kinase assay. Technology overview, protocols, and assay conditions are accessible at https://x.gd/UgBBB.

[4] = target: ERBB2 (HER2) (Homo sapiens, UniProt P04626); test: SelectScreen Z'-LYTE kinase profiling; assay type: biochemical
Experimental: as §2

[5] = target: KDR (VEGFR2) (Homo sapiens, UniProt P35968); test: SelectScreen Z'-LYTE kinase profiling; assay type: biochemical
Experimental: as §2

[6] = target: KIT (Homo sapiens, UniProt P10721); test: SelectScreen Z'-LYTE kinase profiling; assay type: biochemical
Experimental: as §2

[7] = target: TYRO3 (RSE) (Homo sapiens, UniProt Q06418); test: SelectScreen Z'-LYTE kinase profiling; assay type: biochemical
Experimental: as §2

[8] = target: MST1R (RON) (Homo sapiens, UniProt Q04912); test: SelectScreen Z'-LYTE kinase profiling; assay type: biochemical
Experimental: as §2

[9] = target: ERBB4 (HER4) (Homo sapiens, UniProt Q15303); test: SelectScreen Z'-LYTE kinase profiling; assay type: biochemical
Experimental: as §2

[10] = target: FGFR1 (Homo sapiens, UniProt P11362); test: SelectScreen Z'-LYTE kinase profiling; assay type: biochemical
Experimental: as §2

[11] = target: ALK (Homo sapiens, UniProt Q9UM73); test: SelectScreen Z'-LYTE kinase profiling; assay type: biochemical
Experimental: as §2

[12] = system: HER2 protein in BT-474 cells; test: Western blot of p-HER2 and t-HER2, BT-474; assay type: cell-based, human; conditions: BT-474, 5 µM, 72 h
Experimental: as §1

ERBB2 (HER2), sequence (P04626 23-1255): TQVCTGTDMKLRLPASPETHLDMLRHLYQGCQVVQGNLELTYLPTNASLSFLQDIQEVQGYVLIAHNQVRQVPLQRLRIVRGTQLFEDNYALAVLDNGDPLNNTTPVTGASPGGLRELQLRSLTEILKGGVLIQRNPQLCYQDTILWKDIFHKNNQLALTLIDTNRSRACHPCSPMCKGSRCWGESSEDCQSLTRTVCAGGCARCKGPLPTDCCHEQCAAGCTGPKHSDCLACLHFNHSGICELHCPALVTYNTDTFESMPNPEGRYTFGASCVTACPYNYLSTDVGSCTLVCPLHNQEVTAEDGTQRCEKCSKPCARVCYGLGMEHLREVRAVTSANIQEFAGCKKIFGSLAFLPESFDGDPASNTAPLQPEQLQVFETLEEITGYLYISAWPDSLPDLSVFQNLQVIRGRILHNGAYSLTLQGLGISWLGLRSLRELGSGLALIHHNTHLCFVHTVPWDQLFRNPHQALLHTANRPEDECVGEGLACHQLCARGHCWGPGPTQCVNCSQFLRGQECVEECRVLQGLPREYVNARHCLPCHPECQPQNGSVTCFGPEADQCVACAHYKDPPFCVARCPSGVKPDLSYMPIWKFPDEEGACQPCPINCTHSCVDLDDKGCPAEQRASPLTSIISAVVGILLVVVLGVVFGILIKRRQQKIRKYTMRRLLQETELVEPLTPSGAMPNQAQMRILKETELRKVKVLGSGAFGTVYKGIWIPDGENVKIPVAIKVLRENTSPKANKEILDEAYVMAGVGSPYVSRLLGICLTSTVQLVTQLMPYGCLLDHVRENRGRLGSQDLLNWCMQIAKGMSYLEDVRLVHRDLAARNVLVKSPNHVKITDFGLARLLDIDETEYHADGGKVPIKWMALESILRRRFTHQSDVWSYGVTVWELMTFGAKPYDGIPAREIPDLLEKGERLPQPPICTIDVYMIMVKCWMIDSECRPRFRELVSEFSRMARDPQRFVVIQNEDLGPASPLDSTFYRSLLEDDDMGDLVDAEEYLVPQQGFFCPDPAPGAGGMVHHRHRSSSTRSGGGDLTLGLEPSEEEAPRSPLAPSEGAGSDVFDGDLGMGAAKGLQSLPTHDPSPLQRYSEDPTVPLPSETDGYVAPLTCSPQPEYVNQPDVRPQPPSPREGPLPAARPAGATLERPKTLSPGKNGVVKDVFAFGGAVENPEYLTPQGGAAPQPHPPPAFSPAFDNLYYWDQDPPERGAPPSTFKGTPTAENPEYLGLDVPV
ERBB4 (HER4), sequence (Q15303 26-1308): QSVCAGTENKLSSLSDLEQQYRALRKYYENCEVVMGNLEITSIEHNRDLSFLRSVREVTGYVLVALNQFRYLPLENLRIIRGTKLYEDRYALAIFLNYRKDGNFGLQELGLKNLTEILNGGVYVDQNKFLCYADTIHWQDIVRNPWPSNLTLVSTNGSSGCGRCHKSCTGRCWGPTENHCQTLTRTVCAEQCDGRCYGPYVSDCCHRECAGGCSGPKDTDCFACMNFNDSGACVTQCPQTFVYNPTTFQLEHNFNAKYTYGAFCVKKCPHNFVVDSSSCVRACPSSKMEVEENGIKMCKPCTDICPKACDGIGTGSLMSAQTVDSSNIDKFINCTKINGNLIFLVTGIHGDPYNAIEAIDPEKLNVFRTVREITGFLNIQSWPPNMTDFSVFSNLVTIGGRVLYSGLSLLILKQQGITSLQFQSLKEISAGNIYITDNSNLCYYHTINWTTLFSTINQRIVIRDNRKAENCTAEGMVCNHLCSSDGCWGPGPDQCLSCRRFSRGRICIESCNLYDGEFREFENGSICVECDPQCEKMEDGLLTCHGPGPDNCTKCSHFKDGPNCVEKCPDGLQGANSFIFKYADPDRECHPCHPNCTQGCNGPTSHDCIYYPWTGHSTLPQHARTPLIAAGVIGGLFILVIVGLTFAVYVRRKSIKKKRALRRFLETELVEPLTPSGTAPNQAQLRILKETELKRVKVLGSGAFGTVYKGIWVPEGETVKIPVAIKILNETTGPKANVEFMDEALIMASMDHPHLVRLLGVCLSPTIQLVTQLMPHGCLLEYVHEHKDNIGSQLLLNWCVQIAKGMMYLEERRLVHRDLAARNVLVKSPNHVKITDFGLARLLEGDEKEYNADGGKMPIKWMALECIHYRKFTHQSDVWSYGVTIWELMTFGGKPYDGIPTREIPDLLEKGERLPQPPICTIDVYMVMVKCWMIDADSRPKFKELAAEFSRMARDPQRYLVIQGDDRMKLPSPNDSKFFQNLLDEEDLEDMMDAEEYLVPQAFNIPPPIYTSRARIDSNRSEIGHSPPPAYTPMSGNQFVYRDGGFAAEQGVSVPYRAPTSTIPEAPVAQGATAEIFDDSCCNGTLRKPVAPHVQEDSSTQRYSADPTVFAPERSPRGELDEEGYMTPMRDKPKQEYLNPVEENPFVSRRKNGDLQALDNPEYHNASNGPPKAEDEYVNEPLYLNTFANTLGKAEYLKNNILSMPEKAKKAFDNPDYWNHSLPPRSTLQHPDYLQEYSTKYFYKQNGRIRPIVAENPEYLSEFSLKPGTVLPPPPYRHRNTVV
MST1R (RON), sequence (Q04912 25-1400): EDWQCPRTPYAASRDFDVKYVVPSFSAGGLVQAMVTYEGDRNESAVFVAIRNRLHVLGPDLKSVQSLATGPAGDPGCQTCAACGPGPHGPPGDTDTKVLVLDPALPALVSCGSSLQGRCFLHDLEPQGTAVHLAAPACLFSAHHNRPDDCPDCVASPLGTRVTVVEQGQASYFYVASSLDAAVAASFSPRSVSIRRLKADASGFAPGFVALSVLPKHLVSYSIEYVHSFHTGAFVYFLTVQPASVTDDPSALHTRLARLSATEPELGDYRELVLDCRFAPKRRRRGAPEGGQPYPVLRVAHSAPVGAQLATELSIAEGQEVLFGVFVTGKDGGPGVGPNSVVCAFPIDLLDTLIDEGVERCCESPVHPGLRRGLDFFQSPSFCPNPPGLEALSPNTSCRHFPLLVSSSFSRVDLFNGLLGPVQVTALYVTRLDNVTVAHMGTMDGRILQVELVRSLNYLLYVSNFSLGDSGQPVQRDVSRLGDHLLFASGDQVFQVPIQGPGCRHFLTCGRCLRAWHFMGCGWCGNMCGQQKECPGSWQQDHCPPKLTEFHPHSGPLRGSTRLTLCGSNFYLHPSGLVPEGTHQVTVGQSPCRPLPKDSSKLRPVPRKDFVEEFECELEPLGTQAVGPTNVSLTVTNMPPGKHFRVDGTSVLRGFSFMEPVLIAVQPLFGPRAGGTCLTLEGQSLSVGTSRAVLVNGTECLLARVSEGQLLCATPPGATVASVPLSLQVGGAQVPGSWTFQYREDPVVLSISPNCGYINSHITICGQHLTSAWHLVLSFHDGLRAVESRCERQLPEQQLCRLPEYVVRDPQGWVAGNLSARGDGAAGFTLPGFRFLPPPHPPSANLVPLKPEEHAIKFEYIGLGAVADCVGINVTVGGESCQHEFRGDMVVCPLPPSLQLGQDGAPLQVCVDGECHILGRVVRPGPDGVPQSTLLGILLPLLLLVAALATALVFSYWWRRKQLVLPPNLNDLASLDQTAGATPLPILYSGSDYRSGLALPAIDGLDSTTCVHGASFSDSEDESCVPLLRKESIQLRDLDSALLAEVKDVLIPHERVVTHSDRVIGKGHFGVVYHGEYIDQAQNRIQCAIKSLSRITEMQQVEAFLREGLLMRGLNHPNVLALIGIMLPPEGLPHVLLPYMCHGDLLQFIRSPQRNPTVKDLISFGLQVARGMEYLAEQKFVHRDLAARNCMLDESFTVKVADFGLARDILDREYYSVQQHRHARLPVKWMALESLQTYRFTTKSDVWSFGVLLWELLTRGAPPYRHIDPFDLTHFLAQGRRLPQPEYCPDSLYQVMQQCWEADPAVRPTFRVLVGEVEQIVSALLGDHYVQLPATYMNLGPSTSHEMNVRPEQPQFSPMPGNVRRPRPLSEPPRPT
FGFR1, sequence (P11362 22-822): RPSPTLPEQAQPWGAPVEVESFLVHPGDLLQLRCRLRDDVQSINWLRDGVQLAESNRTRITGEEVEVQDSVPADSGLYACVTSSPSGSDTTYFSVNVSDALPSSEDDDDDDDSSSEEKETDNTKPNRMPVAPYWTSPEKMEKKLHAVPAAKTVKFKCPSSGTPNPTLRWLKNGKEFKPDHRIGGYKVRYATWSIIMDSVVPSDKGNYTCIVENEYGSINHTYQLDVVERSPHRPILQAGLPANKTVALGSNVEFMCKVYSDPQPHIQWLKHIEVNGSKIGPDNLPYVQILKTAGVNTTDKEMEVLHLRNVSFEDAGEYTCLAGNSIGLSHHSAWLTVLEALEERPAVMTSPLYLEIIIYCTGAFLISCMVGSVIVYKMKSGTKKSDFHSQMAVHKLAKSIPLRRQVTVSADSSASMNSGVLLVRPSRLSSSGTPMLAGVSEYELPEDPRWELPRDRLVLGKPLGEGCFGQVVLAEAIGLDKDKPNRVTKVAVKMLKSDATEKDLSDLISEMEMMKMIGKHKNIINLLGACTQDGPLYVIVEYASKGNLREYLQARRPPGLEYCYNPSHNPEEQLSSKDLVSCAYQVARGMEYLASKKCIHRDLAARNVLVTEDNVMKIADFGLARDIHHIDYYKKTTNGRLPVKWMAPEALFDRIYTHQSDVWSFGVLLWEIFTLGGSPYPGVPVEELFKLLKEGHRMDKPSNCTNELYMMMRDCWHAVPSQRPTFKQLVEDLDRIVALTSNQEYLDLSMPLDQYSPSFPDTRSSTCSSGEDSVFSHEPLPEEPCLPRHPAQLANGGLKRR

IC50 [2]: 18.5 nM | inhibition at 0.1 µM [3]: 2% | inhibition at 0.1 µM [4]: > 80% | Mean inhibition (%) ([4]; 0.1 µM): 92% | inhibition at 0.1 µM [5]: 4% | inhibition at 0.1 µM [6]: 0% | inhibition at 0.1 µM [7]: 5% | inhibition at 0.1 µM [8]: 7% | inhibition at 0.1 µM [9]: > 80% | Mean inhibition (%) ([9]; 0.1 µM): 88% | inhibition at 0.1 µM [10]: 7% | inhibition at 0.1 µM [11]: 7%
Structure (SMILES): O=C1C[C@@H](c2ccc(O[C@@H]3O[C@H](CO)[C@@H](O)[C@H](O)[C@H]3O)cc2)Oc2cc(O)ccc21 [Liquiritin]
total expression levels of HER2 protein [1]: comparable suppressive effects | HER2 phosphorylation ([1]; vs vehicle): significantly inhibited HER2 phosphorylation | total expression levels of HER2 protein [12]: comparable suppressive effects | HER2 phosphorylation ([12]; vs vehicle): significantly inhibited HER2 phosphorylation
